What all share (assay type): cell-based
The target in one experiment is T1, CD74-ROS1 Ba/F3 (Homo sapiens, UniProt P08922).
T1 construct: fused on or other part: P04233 (HLA class II histocompatibility antigen gamma chain)
Nature of the experiment: Cell proliferation assay, CD74-ROS1 Ba/F3 stable cell line (CellTiter-Glo). Conditions: Ba/F3-CD74-ROS1 wild type cells, 72 hours compound incubation; read-out: Cell Proliferation IC50 CD74-ROS1 Ba/F3. From the text: Creation of CD74-ROS1 and EML4-ALK Ba/F3 Stable Cell Lines and Cell Proliferation Assays.
The CD74-ROS1 wild-type gene and EML4-ALK wild-type gene (variant 1) were synthesized at GenScript and cloned into pCDH-CMV-MCS-EF1-Puro plasmid (System Biosciences, Inc). Ba/F3-CD74-ROS1 and Ba/F3-EML4-ALK wild type cell lines were generated by infecting Ba/F3 cells with lentivirus containing CD74-ROS1 wide-type and EML4-ALK wild type. Stable cell lines were selected by puromycin treatment, followed by IL-3 withdrawal. 3000 cells were seeded in 384 well white plate overnight before compound treatment. Cell proliferation was measured using CellTiter-Glo luciferase-based ATP detection assay (Promega) following the manufactures's protocol after 72 hours of various concentration of compound incubation. IC50 determinations were performed using GraphPad Prism software (GraphPad, Inc., San Diego, Calif.).

In the next experiment the target is T2, EML4-ALK Ba/F3 (Homo sapiens, UniProt Q9UM73).
T2 construct: fused on or other part: Q9HC35 (Echinoderm microtubule-associated protein-like 4)
T2 sequence (Q9UM73 whole entry, change not shown, the tested form may be a part): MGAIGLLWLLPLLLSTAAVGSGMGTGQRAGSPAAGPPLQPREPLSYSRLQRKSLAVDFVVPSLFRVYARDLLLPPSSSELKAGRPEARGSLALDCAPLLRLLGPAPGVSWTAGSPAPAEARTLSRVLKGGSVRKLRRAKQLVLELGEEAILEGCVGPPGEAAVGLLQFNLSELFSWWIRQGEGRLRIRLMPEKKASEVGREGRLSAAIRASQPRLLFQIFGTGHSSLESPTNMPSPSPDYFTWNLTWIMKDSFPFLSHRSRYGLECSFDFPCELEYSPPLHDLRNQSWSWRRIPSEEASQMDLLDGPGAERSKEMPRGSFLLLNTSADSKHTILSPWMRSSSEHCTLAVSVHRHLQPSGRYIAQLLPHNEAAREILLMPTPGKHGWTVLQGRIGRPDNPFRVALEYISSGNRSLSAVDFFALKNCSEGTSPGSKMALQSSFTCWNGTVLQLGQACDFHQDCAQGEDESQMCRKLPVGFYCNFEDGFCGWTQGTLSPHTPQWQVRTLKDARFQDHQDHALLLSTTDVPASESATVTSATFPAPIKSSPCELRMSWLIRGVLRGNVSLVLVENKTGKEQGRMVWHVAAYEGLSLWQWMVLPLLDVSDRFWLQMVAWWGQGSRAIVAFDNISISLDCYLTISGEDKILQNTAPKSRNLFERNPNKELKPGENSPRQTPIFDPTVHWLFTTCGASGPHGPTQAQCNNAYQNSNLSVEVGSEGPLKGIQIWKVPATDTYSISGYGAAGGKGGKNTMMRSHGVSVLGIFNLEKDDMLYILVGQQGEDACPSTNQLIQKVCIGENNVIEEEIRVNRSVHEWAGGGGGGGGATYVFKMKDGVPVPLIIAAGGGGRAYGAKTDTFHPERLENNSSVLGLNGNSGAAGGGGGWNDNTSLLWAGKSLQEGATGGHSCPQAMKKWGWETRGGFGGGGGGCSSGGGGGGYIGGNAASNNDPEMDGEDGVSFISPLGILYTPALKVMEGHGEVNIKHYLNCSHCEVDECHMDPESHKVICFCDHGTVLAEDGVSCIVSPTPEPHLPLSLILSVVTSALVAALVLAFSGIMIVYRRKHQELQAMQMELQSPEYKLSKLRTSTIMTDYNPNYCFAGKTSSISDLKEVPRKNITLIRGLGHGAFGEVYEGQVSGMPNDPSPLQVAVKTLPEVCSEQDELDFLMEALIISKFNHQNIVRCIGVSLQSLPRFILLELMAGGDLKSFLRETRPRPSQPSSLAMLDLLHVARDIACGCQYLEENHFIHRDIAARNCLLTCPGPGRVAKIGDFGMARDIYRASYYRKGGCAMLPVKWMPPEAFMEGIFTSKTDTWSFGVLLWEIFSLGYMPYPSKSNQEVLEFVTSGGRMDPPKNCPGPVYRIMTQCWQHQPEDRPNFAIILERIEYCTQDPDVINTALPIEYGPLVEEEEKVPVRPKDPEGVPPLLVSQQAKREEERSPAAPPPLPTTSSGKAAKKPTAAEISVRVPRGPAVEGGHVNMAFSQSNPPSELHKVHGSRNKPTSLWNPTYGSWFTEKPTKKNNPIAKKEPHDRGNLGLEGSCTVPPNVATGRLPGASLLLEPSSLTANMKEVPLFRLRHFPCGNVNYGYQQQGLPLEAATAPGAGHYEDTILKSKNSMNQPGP
As to the kind of experiment: Cell proliferation assay, EML4-ALK Ba/F3 stable cell line (CellTiter-Glo). The conditions noted are these: Ba/F3-EML4-ALK wild type (variant 1) cells, 72 hours compound incubation; read-out: Cell Proliferation IC50 EML4-ALK Ba/F3. In short, it runs like this:
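Ba/F3 cells were lentivirally transduced with wild-type CD74-ROS1 or EML4-ALK (variant 1), selected with puromycin and made IL-3-independent. Cells (3000/well) were seeded overnight and then treated with the compounds at various concentrations for 72 h. Proliferation was read by CellTiter-Glo ATP luminescence, and IC50 values were fitted.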
In general terms: In ATP-based viability assays light output follows the ATP content of the culture.

Experiment [1] concerns T cell lymphoma Karpas-299 cell line (harboring endogenous NPM-ALK fusion gene). As to the kind of experiment: Cell proliferation assay, Karpas-299 cells (CellTiter-Glo). The conditions noted are these: Homo sapiens, 72 hours incubation. Here is the method: Cell Proliferation Assays.
Colorectal cell lines KM 12 (harboring endogenous TPM3-TRKA fusion gene) cells were cultured in DMEM medium, supplemented with 10% fetal bovine serum and 100 U/mL of penicillin/streptomycin. 5000 cells were seeded in 384 well white plate for 24 hours before compounds treatment. Cell proliferation was measured using CellTiter-Glo luciferase-based ATP detection assay (Promega) following the manufactures's protocol after 72 hours incubation. IC50 determinations were performed using GraphPad Prism software (GraphPad, Inc., San Diego, Calif.). Alternatively, essential thrombocythemia cell line SET-2 cells (harboring endogenous JAK2 […] point mutation) or T cell lymphoma Karpas-299 cell line (harboring endogenous NPM-ALK fusion gene) were cultured in RPMI medium, supplemented with 10% fetal bovine serum and 100 U/mL of penicillin/streptomycin. 5000 cells were seeded in 384 well white plate for 24 hours before compounds treatment. Cell proliferation was measured using CellTiter-Glo luciferase-based ATP detection assay (Promega) following the manufactures's protocol after 72 hours incubation. IC50 determinations were performed using GraphPad Prism software (GraphPad, Inc., San Diego, Calif.).

Experiment [2] concerns Colorectal cell lines KM 12 (harboring endogenous TPM3-TRKA fusion gene). Nature of the experiment: Cell proliferation assay, KM12 cells (CellTiter-Glo). The conditions noted are these: Homo sapiens, 72 hours incubation.
For experiment [3], the system named is essential thrombocythemia cell line SET-2 cells (harboring endogenous JAK2 point mutation). As to the kind of experiment: Cell proliferation assay, SET-2 cells (CellTiter-Glo). Conditions: Homo sapiens, 72 hours incubation, read-out: Cell Proliferation IC50 SET2. In short, it runs like this:
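Karpas-299 (NPM-ALK) or SET-2 (JAK2 […]) cells in RPMI with 10% FBS, seeded 24 h before compound addition. Viability read by CellTiter-Glo ATP luminescence after 72 h incubation; IC50 derived from dose–response curves.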

Consider 15 compounds from patent publication US11008337B2, “Chiral diaryl macrocycles as modulators of protein kinases” (Turning Point Therapeutics, Inc., priority 2015, dated 2021).

T1 sequence (P08922 whole entry, change not shown, the tested form may be a part): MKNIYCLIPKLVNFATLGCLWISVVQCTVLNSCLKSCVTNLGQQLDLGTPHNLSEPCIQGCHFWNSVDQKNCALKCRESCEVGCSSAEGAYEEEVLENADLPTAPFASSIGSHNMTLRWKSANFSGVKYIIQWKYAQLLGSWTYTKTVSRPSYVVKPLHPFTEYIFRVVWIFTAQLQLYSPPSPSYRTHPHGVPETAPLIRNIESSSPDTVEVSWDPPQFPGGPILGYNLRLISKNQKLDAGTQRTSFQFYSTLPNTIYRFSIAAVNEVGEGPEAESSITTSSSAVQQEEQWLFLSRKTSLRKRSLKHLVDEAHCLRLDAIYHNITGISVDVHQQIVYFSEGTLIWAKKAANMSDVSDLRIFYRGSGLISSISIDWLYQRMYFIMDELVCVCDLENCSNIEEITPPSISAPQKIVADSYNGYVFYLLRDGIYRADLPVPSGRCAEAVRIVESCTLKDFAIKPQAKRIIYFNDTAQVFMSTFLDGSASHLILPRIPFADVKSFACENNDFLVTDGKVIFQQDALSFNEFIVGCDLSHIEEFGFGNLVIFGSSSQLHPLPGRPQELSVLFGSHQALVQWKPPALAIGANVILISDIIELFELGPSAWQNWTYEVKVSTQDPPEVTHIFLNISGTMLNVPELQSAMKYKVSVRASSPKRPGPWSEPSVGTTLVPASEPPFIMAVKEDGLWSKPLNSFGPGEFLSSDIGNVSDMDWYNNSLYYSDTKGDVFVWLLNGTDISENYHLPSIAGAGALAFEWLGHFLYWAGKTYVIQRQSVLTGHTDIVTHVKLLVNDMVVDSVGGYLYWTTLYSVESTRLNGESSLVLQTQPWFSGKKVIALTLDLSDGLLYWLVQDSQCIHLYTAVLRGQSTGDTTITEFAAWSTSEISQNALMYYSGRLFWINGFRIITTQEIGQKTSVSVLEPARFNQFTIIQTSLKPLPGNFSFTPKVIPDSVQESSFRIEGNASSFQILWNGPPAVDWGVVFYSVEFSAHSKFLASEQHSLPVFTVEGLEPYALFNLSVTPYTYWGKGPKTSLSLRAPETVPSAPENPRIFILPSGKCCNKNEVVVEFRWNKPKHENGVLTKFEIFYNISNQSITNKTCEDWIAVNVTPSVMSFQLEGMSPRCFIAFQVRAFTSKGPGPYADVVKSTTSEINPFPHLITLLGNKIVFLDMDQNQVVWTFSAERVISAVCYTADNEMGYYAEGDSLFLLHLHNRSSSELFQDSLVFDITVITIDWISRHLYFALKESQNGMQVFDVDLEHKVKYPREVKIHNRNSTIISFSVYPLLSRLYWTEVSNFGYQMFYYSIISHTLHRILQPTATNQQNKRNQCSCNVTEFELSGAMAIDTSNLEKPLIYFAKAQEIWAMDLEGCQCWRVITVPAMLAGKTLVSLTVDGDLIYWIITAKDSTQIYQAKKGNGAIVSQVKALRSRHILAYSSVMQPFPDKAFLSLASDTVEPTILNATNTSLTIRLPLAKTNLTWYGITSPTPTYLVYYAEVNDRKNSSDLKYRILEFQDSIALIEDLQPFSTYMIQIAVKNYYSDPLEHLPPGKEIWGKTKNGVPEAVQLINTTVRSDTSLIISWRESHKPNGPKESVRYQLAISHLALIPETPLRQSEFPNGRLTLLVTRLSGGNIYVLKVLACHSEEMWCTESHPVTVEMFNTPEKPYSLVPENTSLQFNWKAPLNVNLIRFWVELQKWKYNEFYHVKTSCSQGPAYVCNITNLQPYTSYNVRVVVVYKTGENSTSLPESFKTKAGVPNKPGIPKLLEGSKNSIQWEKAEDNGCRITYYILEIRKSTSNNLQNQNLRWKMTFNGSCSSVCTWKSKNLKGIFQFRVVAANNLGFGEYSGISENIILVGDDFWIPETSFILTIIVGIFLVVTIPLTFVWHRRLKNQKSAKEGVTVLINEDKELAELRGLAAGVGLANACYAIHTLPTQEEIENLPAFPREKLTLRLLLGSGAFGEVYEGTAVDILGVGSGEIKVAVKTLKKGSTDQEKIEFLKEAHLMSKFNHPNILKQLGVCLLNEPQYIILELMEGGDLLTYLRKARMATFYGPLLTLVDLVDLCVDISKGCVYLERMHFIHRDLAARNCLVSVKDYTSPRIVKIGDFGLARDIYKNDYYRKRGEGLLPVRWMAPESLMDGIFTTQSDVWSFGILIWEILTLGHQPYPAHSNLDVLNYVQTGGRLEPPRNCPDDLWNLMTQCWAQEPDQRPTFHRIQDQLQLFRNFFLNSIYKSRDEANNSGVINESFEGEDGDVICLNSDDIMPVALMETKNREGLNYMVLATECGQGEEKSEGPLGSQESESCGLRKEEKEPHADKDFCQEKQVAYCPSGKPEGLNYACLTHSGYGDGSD

Take `C[C@H]1Nc2ccn3ncc(c3n2)C(=O)N[C@H](CO)COc2ccc(F)cc21` [Compound 8, (6R,13R)-11-fluoro-6-(hydroxymethyl)-13-methyl-6,7,13,14-tetrahydro-1,15-ethenopyrazolo[4,3-f][1,4,8,10]benzoxatriazacyclotridecin-4(5H)-one]: the GI50 amounted to 34.7 nM at CD74-ROS1 Ba/F3 and 2130 nM on EML4-ALK Ba/F3. Further, the IC50 in experiment [1] was 1500 nM; in experiment [2], 17 nM; in experiment [3], 406 nM.
For `C[C@H]1Nc2ccn3ncc(c3n2)C(=O)NC[C@H](CF)Oc2ccc(F)cc21` [Compound 9, (7R,13R)-11-fluoro-7-(fluoromethyl)-13-methyl-6,7,13,14-tetrahydro-1,15-ethenopyrazolo[4,3-f][1,4,8,10]benzoxatriazacyclotridecin-4(5H)-one], in that order: 0.2 nM, 0.2 nM, 73 nM, 0.4 nM and 93 nM.
With `C[C@H]1Nc2ccn3ncc(c3n2)C(=O)NC[C@@H](CF)Oc2ccc(F)cc21` [Compound 10, (7S,13R)-11-fluoro-7-(fluoromethyl)-13-methyl-6,7,13,14-tetrahydro-1,15-ethenopyrazolo[4,3-f][1,4,8,10]benzoxatriazacyclotridecin-4(5H)-one], the GI50 stood at 0.2 nM at CD74-ROS1 Ba/F3 and 96.3 nM on EML4-ALK Ba/F3. Further, the IC50 was 80 nM in experiment [1], 1.4 nM in experiment [2] and 57 nM in experiment [3].
With `C[C@H]1Nc2ccn3ncc(c3n2)C(=O)N[C@H](CF)COc2ccc(F)cc21` [Compound 11, (6S,13R)-11-fluoro-6-(fluoromethyl)-13-methyl-6,7,13,14-tetrahydro-1,15-ethenopyrazolo[4,3-f][1,4,8,10]benzoxatriazacyclotridecin-4(5H)-one], the GI50 at CD74-ROS1 Ba/F3 is 18.9 nM; at EML4-ALK Ba/F3, 2430 nM. Moreover, the IC50 stood at 590 nM in experiment [1], 2 nM in experiment [2] and 187 nM in experiment [3].
`C[C@H]1Nc2ccn3ncc(c3n2)C(=O)NC[C@H](CN(C)C)Oc2ccc(F)cc21` [Compound 12, (7R,13R)-7-[(dimethylamino)methyl]-11-fluoro-13-methyl-6,7,13,14-tetrahydro-1,15-ethenopyrazolo[4,3-f][1,4,8,10]benzoxatriazacyclotridecin-4(5H)-one]: the GI50 at CD74-ROS1 Ba/F3 was determined as 130 nM; at EML4-ALK Ba/F3 it was 5100 nM. Also, the figures for the IC50 in experiment [1], in experiment [2] and in experiment [3] were 2270 nM, 42 nM and 1960 nM, respectively.
Turning to `C[C@H]1Nc2ccn3ncc(c3n2)C(=O)N[C@@H](CN(C)C)COc2ccc(F)cc21` [Compound 13, (6S,13R)-6-[(dimethylamino)methyl]-11-fluoro-13-methyl-6,7,13,14-tetrahydro-1,15-ethenopyrazolo[4,3-f][1,4,8,10]benzoxatriazacyclotridecin-4(5H)-one], the GI50 at CD74-ROS1 Ba/F3 turned out to be 112 nM; at EML4-ALK Ba/F3, 1480 nM. The IC50 came out at 3220 nM in experiment [1], 69 nM in experiment [2] and 4030 nM in experiment [3].
For `CNC(=O)[C@@H]1CNC(=O)c2cnn3ccc(nc23)N[C@H](C)c2cc(F)ccc2O1` [Compound 14, (7S,13R)-7-(N-methylcarboxamide)-11-fluoro-13-methyl-6,7,13,14-tetrahydro-1,15-ethenopyrazolo[4,3-f][1,4,8,10]benzoxatriazacyclotridecin-4(5H)-one], the GI50 at CD74-ROS1 Ba/F3 is 300 nM; at EML4-ALK Ba/F3, over 10000 nM. For the same compound, the IC50 in experiment [1] is over 10000 nM; in experiment [2] it was 180 nM; in experiment [3], 3780 nM.
As for `CNC(=O)[C@H]1CNC(=O)c2cnn3ccc(nc23)N[C@H](C)c2cc(F)ccc2O1` [Compound 15, (7R,13R)-7-(N-methylcarboxamide)-11-fluoro-13-methyl-6,7,13,14-tetrahydro-1,15-ethenopyrazolo[4,3-f][1,4,8,10]benzoxatriazacyclotridecin-4(5H)-one], the GI50 on CD74-ROS1 Ba/F3 was 1000 nM; on EML4-ALK Ba/F3, over 10000 nM. The IC50 was over 10000 nM in experiment [1], 160 nM in experiment [2] and 4790 nM in experiment [3].
On to `C[C@H]1Nc2ccn3ncc(c3n2)C(=O)N[C@@H](C(F)F)COc2ccc(F)cc21` [Compound 16, (6R,13R)-6-(difluoromethyl)-11-fluoro-13-methyl-6,7,13,14-tetrahydro-1,15-ethenopyrazolo[4,3-f][1,4,8,10]benzoxatriazacyclotridecin-4(5H)-one], for which the GI50 was 112 nM on CD74-ROS1 Ba/F3 and 1910 nM at EML4-ALK Ba/F3. Also, the IC50 worked out at 470 nM in experiment [1], 0.4 nM in experiment [2] and 665 nM in experiment [3].
As for `C[C@H]1Nc2ccn3ncc(c3n2)C(=O)N[C@H](C(F)F)COc2ccc(F)cc21` [Compound 17, (6S,13R)-6-(difluoromethyl)-11-fluoro-13-methyl-6,7,13,14-tetrahydro-1,15-ethenopyrazolo[4,3-f][1,4,8,10]benzoxatriazacyclotridecin-4(5H)-one], the GI50 at CD74-ROS1 Ba/F3 stood at 3 nM; on EML4-ALK Ba/F3 it was 2690 nM. Also, the IC50 in experiment [1] is 297 nM; in experiment [2] it was 0.2 nM; in experiment [3], 5 nM.
As to `C[C@H]1Nc2ccn3ncc(c3n2)C(=O)NC[C@H](C(F)F)Oc2ccc(F)cc21` [Compound 18, (7R,13R)-7-(difluoromethyl)-11-fluoro-13-methyl-6,7,13,14-tetrahydro-1,15-ethenopyrazolo[4,3-f][1,4,8,10]benzoxatriazacyclotridecin-4(5H)-one], the GI50 on CD74-ROS1 Ba/F3 came to 0.2 nM; at EML4-ALK Ba/F3, 28.4 nM. Moreover, the IC50 was 24.7 nM in experiment [1], 0.2 nM in experiment [2] and 98.6 nM in experiment [3].
For `CC[C@H]1Nc2ccn3ncc(c3n2)C(=O)NCCOc2ccc(F)cc21` [Compound 19, (13R)-13-ethyl-11-fluoro-6,7,13,14-tetrahydro-1,15-ethenopyrazolo[4,3-f][1,4,8,10]benzoxatriazacyclotridecin-4(5H)-one], the values for the GI50 at CD74-ROS1 Ba/F3 and on EML4-ALK Ba/F3 were 0.5 nM and 406 nM, respectively. Further, the IC50 in experiment [1] came to 193 nM; in experiment [2], 0.6 nM; in experiment [3] it was 294 nM.
In the case of `CC[C@H]1CNC(=O)c2cnn3ccc(nc23)N[C@H](CC)c2cc(F)ccc2O1` [Compound 20, (7S,13R)-7,13-diethyl-11-fluoro-6,7,13,14-tetrahydro-1,15-ethenopyrazolo[4,3-f][1,4,8,10]benzoxatriazacyclotridecin-4(5H)-one], the figures for the GI50 at CD74-ROS1 Ba/F3 and at EML4-ALK Ba/F3 were 0.2 nM and 151 nM, respectively. The IC50 in experiment [1] was 144 nM; in experiment [2] it was 3 nM; in experiment [3], 404 nM.
With `CC[C@H]1COc2ccc(F)cc2[C@@H](CC)Nc2ccn3ncc(c3n2)C(=O)N1` [Compound 21, (6S,13R)-6,13-diethyl-11-fluoro-6,7,13,14-tetrahydro-1,15-ethenopyrazolo[4,3-f][1,4,8,10]benzoxatriazacyclotridecin-4(5H)-one], the GI50 at CD74-ROS1 Ba/F3 amounted to 45.2 nM; on EML4-ALK Ba/F3, 6790 nM. For the same compound, the IC50 worked out at 8030 nM in experiment [1], 3 nM in experiment [2] and 1130 nM in experiment [3].
`O=C1NCCOc2ccc(F)cc2[C@@H](CCO)Nc2ccn3ncc1c3n2` [Compound 22, (13R)-11-fluoro-13-(2-hydroxyethyl)-6,7,13,14-tetrahydro-1,15-ethenopyrazolo[4,3-f][1,4,8,10]benzoxatriazacyclotridecin-4(5H)-one]: the GI50 at CD74-ROS1 Ba/F3 is 1000 nM; on EML4-ALK Ba/F3 it was over 10000 nM. Besides, the IC50 was 352 nM in experiment [1], 22 nM in experiment [2] and 854 nM in experiment [3].
